Reference: article PMC4709569, “A Novel Naturally Occurring Class I 5-Enolpyruvylshikimate-3-Phosphate Synthase from Janibacter sp. Confers High Glyphosate Tolerance to Rice” (Scientific Reports, 2016)

What was measured:
[1] = molecular target: T1, aroAE. coli (Escherichia coli, UniProt P0A6D3); experiment: malachite green phosphate release, dose-response fit; assay type: biochemical
T1 construct: gene aroA; full length; pGEX-6p-1 BamHI/EcoRI, E. coli BL21(DE3); GST tag removed by 3C protease; similar size to aroAJ. sp (47 kDa on gel)
T1 sequence (P0A6D3 whole entry): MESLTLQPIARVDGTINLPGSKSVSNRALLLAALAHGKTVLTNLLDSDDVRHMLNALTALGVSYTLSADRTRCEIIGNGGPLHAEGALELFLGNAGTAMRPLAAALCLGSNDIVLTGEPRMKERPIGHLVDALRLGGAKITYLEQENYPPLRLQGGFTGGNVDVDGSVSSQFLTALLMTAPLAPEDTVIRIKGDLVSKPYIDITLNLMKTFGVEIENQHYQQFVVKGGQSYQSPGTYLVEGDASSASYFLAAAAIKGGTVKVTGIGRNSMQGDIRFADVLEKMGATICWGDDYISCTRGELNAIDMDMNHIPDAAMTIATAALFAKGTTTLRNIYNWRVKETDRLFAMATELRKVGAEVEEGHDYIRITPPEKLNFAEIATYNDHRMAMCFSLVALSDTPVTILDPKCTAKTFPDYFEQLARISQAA
From the text: malachite green phosphate release, dose-response fit on aroAE. coli

[2] = molecular target: T2, aroAJ. sp (Janibacter sp. YB324, UniProt Z9JWC7BZZ5); experiment: malachite green phosphate release, Lineweaver-Burk; assay type: biochemical; conditions: competitive with respect to PEP; PEP 0.067-0.5 mM, S3P 1 mM; glyphosate 0-5 mM; 50 mM Hepes pH 7.0, 28 °C, KCl present
T2 construct: pGEX-6p-1 BamHI/EcoRI, E. coli BL21(DE3); GST tag removed by 3C protease; HTCC2649
From the text: malachite green phosphate release, Lineweaver-Burk on aroAJ. sp

[3] = molecular target: T1, aroAE. coli; experiment: malachite green phosphate release, Lineweaver-Burk; assay type: biochemical; conditions: read-out: Ki ^c
From the text: malachite green phosphate release, Lineweaver-Burk on aroAE. coli

[4] = molecular target: T2, aroAJ. sp; experiment: malachite green phosphate release, dose-response fit; assay type: biochemical; conditions: 1 mM PEP, 1 mM S3P; glyphosate 0.0001-100 mM; 50 mM Hepes pH 7.0, 28 °C, KCl present
From the text: malachite green phosphate release, dose-response fit on aroAJ. sp

[5] = system: C=C(OP(=O)(O)O)C(=O)O; experiment: purified protein; conditions: PEP 0.05-1 mM, S3P fixed 1.0 mM, 50 mM Hepes pH 7.0, 28 °C
[6] = system: O=C(O)C1=C[C@@H](OP(=O)(O)O)[C@@H](O)[C@H](O)C1; experiment: purified protein; conditions: S3P 0.05-1 mM, PEP fixed 1.0 mM, 50 mM Hepes pH 7.0, 28 °C

Compound	IC50 [1] [µM]	Ki [2] [µM]	Ki [3] [µM]	IC50 [4] [µM]	Km [5] [µM]	Km [6] [µM]
O=C(O)CNCP(=O)(O)O [glyphosate]	40 ± 10	373 ± 50	0.9 ± 0.09	3600 ± 200		
aroAE. coli (Escherichia coli K-12)					60 ± 7	115 ± 10
